Results taken from patent US20170240522A1, “BENZOTHIOPHENE, BENZYLOXYBENZYLIDENE AND INDOLINE DERIVATIVES USEFUL FOR THE TREATMENT OF TUBERCULOSIS” (priority 2014, published 2017).
Read-outs that look alike come from different tables or passages of the source.

Tests used:
[1] = target: T1, MprB (Mycobacterium tuberculosis, UniProt P9WGL1); test: MprB autophosphorylation assay; format: biochemical
T1 construct: MprB lacking its N-terminal transmembrane domain was incubated with [γ-32P]ATP; His6; made in house; host or cells: E. coli BL21 (DE3), vector pQE80L
T1 sequence (P9WGL1 185-504 limits assumed): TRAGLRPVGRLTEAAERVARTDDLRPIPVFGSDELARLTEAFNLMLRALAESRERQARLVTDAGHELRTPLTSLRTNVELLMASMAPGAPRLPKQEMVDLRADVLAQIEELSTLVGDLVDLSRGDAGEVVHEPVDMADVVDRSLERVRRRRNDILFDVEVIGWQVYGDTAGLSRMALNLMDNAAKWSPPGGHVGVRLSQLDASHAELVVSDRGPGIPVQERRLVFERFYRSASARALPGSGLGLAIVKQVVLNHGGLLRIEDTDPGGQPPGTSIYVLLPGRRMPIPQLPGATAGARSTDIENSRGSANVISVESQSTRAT

[2] = system: ESX-1; test: ESX-1 inhibitory activity of inhibitors of mycobacterium virulence (Table VII); format: cell-based, Mycobacterium tuberculosis
[3] = system: ATP-levels of Mtb; test: Quantification of intracellular ATP levels; format: cell-based, Mycobacterium tuberculosis; details: 10 μM, 24 hours
Experimental: (§1) Bacteria were grown for 24 hours in the presence of test compounds. The BacTiter-Glo microbial cell viability reagent (Promega) was used for the quantification of ATP according to the recommendations of the manufacturer. For EtBr uptake assays, bacteria were washed with PBS containing 0.05% Tween 80, OD600 was adjusted to 0.4 and 100 μl were pipetted into black 96 well plates. EtBr was added (4 μM final concentration) and fluorescence was read every 2 min. at 545/600 nm. Unpaired Student's T-tests were used for statistical analyses.

[4] = system: several other mycobacteria and non-mycobacterial pathogens; test: REMA assay of non-Mtb strains; format: cell-based
[5] = system: Mtb transcriptome; test: RNA-seq and qRT-PCR of compound-treated Mtb; format: cell-based, Mycobacterium tuberculosis
Experimental: For the transcriptomic studies, bacteria were grown under the same conditions as for protein secretion assays. Drug exposure time was 8 hours with 5 μM of compound for RNA-seq experiments and confirmatory qRT-PCR. RNA was extracted with Trizol (Invitrogen) and treated with DNase I (Roche) prior to library preparation or generation of the cDNA template. cDNA was synthesized using the RevertAid First Strand cDNA Synthesis Kit (Fermentas) using random hexamer primer. cDNA corresponding to 10 ng of input RNA was used in each RT-PCR reaction supplemented with specific primer pairs (200 nM each) listed in Table S4 and SYBR-Green master mix (Applied Biosystems). Quantitative RT-PCR reactions were performed with the 7900HT Fast Real-Time PCR System (Applied Biosystems) with the following parameters: 50° C. for 2 min, 95° C. for 10 min, followed by 40 cycles of 95° C. for 15 s and 60° C. for 60 s. Melt curve analysis was used to confirm specific amplification for each primer pair. Unpaired Student's T-tests were used for statistical analyses.
For the RNA-seq library preparation 100 ng of total RNA were used in the TruSeq Stranded mRNA LT kit, according to the instructions provided by the manufacturer (Illumina). A small aliquot was analyzed on Qubit and Fragment Analyzer prior to sequencing on Illumina HiSeq using the TruSeq SR Cluster Generation Kit v3 and TruSeq SBS Kit v3. Data were processed with the Illumina Pipeline Software v1.82. RNA-seq data were deposited in the Gene Expression Omnibus (GEO) server at the National Center for Biotechnology Information (NCBI).
• All analyses in this study were carried out using the M. tuberculosis H37Rv annotation from the TubercuList database (http://tuberculist.epfl.ch/) (Lew et al., 2011). There are 4019 protein coding sequences (CDS) currently annotated in the genome, 73 genes encoding for stable RNAs, small RNAs and tRNAs. In order to quantify protein occupancy and transcription across the entire genome, 3080 intergenic regions (regions flanked by two non-overlapping CDS) were included, resulting in a total of 7172 features. • The single-ended sequence reads generated from RNA-seq experiments were aligned to the M. tuberculosis H37Rv genome (NCBI accession NC_000962.2) using Bowtie2 with default parameters (Langmead and Salzberg, 2012). Read counts for all annotated features were obtained with the htseq-count program (http://www.huber.embl.de/users/anders/HTSeq/doc/count.html). Regions where genes overlapped were excluded from counting. Reads spanning more than one feature were counted for each feature. Since the RNA library was strand-specific, the orientation of sequence reads had to correspond to the orientation of annotated features to be counted. Analysis of differential gene expression was carried out using the DESeq package (Anders and Huber, 2010).

[6] = system: THP-1 macrophages; test: Survival of Mtb-infected activated THP-1 macrophages; format: cell-based, human; details: activated THP-1, higher MOI, 10 μM
[7] = system: EsxA; format: cell-based, Mycobacterium tuberculosis
[8] = system: mycobacterial outer membrane permeability; test: Ethidium bromide (EtBr) uptake assay; format: cell-based, Mycobacterium tuberculosis; details: 10 μM
Experimental: as §1
To investigate whether BBH7 alters mycobacterial outer membrane permeability, which might explain the transcriptomic pattern associated with metal-ion toxicity, the Applicant performed ethidium bromide (EtBr) uptake assays after treatment with the compounds of interest. These assays identify altered outer membrane permeability by an increase of fluorescence after binding of EtBr to bacterial nucleic acids. […] This was not observed with BTP15.

[9] = system: Mtb-GFP inside activated THP-1 cells; format: cell-based, Mycobacterium tuberculosis; details: activated THP-1, 10 μM
[10] = system: Mtb expressing GFP in infected fibroblasts; format: cell-based, Mycobacterium tuberculosis; details: compound concentration 5 μM (FIG. 2D)
[11] = system: MRC-5 lung fibroblasts; test: Fibroblast survival assay (FSA); format: cell-based; details: Homo sapiens, MRC5; read-out: IC50 of protection of fibroblasts
[12] = system: Mtb-infected THP-1 macrophages; format: cell-based, human
[13] = system: Ag85 complex proteins; format: cell-based, Mycobacterium tuberculosis
[14] = system: GroEL
Experimental: In brief, 30 ml of bacteria grown to mid-logarithmic phase (OD600 of 0.6 to 0.7) in Sauton's medium supplemented with 0.05% Tween 80 were centrifuged and resuspended in Sauton's medium without Tween. Compounds were added at concentrations as indicated and cells were grown further at 37° C. with shaking for 4 days. Cultures were harvested by centrifugation to obtain culture filtrates and cell pellets. Culture filtrates were concentrated 100-fold in 5-kDa cutoff Vivaspin columns (Sartorius). Cell lysates were prepared by bead beating bacterial pellets in lysis buffer with 100-μm glass beads.
For immunoblot analysis, 5 μg of protein were resolved by SDS-gel electrophoresis and transferred to nitrocellulose membranes. Membranes were blocked with TBS-buffer (3% milk powder) and incubated overnight with the desired primary antibody diluted in TNT-buffer supplemented with 1% BSA fraction V. Membranes were washed with TNT, incubated with the appropriate secondary antibody in TNT-BSA, washed again with TNT, and developed. GroEL2 was used as a lysis control for culture filtrates and as a loading control for cell lysates.

[15] = system: Mtb-Erdman; test: Growth of Mtb in 7H9 broth; format: cell-based, Mycobacterium tuberculosis; details: 25 μM

Nc1ncnc2c1ncn2[C@@H]1O[C@H](COP(=O)(O)OP(=O)(O)NP(=O)(O)O)[C@@H](O)[C@H]1O [AMP-PNP]
MprB auto-phosphorylation ([1]; 1 mM): no effect | phosphohistidine signal of MprB ([1]; 10 mM): only incomplete reduction

NC(=O)c1c(NC(=O)C2CC2)sc2cc(O)c(Br)cc12 [BTP15, 5 -Bromo-2-(cyclopropanecarbonyl-amino)-6-hydroxy-benzo[b]thiophene-3-carboxylic acid amide]
Activity [2]: 92% | mycobacterial ATP levels [3]: no impact | MIC99 [4]: > 100 µM | significantly downregulated genes (number) ([5]; RNA-seq, 5 μM): 18 genes | differentially regulated genes (number) ([5]; RNA-seq, 5 μM, 8 hours): 35 genes | differential regulation (upregulation) of espA ([5]; qRT-PCR): > 2 fold | downregulation of DosR/MprAB associated genes ([5]; qRT-PCR): > 1.5 fold | mprA expression ([5]; qRT-PCR, after 24 and 48 hours of drug treatment): significantly down-regulated | protection of THP-1 cells from Mtb-induced cell death [6]: protected THP-1 cells from Mtb-induced cell death | EsxA secretion [7]: dose-dependent secretion inhibition | EsxA secretion ([7]; 20 μM): blocked EsxA secretion fully | EtBr accumulation and fluorescence [8]: not observed | intracellular bacterial load [9]: greatly reduced the intracellular bacterial load | GFP fluorescence of Mtb in infected fibroblasts [10]: comparable to the untreated control | MprB auto-phosphorylation [1]: dose-dependent inhibition | IC50 [11]: 1200 nM | rate of bacteria in acidic compartments (Lysotracker Red co-localization) [12]: significantly higher rate | Ag85 secretion ([13]; 20 μM): reduced Ag85 secretion | Ag85 secretion ([13]; concentrations ≦10 μM): only slightly affected at best | GroEL in the culture filtrate (cell lysis) ([14]; BBH7 and BTP15 treatment): not observed | growth inhibition of Mtb [15]: no growth inhibition

CSC(=S)N/N=C(\C)c1ccc(OCc2cccc(Cl)c2)cc1 [D22646]
Activity [2]: 76%

CSC(=S)N/N=C(\C)c1ccc(OCc2ccc([N+](=O)[O-])cc2)cc1 [D22647]
Activity [2]: 30%

COc1ccc([N+](=O)[O-])cc1COc1ccc(/C(C)=N/NC(=S)SC)cc1 [D22648]
Activity [2]: 65%

CSC(=S)N/N=C(\C)c1ccc(OCc2cccc([N+](=O)[O-])c2)cc1 [D22663]
Activity [2]: 47%

CSC(=S)N/N=C(\C)c1ccc(OCc2cccc(Br)c2)cc1 [D22670]
Activity [2]: 67%

CSC(=S)N/N=C(\C)c1ccc(OCc2ccc(Br)cc2)cc1 [D22671]
Activity [2]: 51%

CSC(=S)N/N=C(\C)c1ccc(OCc2cccc(F)c2)cc1 [D22672]
Activity [2]: 94%

C/C(=N\NC(=S)Nc1ccc(F)c(Cl)c1)c1ccc(OCc2ccccc2)cc1 [D23251]
Activity [2]: 34%

C/C(=N\NC(=S)Nc1cccc(Cl)c1Cl)c1ccc(OCc2ccccc2)cc1 [D23579]
Activity [2]: 75%

CSc1ccc(NC(=O)Nc2sc3cc(O)ccc3c2C(N)=O)cc1 [D38979]
Activity [2]: 60%

CC(C)c1ccc(NC(=O)Nc2sc3cc(O)ccc3c2C(N)=O)cc1 [D39317]
Activity [2]: 33%

NC(=O)c1c(NC(=O)Nc2cccc(C(F)(F)F)c2)sc2cc(O)ccc12 [D39321]
Activity [2]: 45%

NC(=O)c1c(NC(=O)Nc2cccc(Cl)c2)sc2cc(O)ccc12 [D39322]
Activity [2]: 40%

COc1ccc(CNCC(O)COc2ccc3c(C(N)=O)c(NC(=O)C4CC4)sc3c2)cc1 (stereo not drawn) [D45756]
Activity [2]: 32%

NC(=O)c1c(NC(=O)Nc2ccc(F)c(Cl)c2)sc2c(Cl)c(O)c(Cl)cc12 [D49399]
Activity [2]: 33%

CC(=O)Oc1c(Cl)cc2c(C(N)=O)c(NC(=O)Nc3ccc(C(C)C)cc3)sc2c1Cl [D51275]
Activity [2]: 41%

COC(=O)c1cccc(NC(=O)Nc2sc3c(Cl)c(OC(C)=O)c(Cl)cc3c2C(N)=O)c1 [D58298]
Activity [2]: 33%

CC(=O)Oc1c(Cl)cc2c(C(N)=O)c(NC(=O)Nc3cccc(CN(C)C)c3)sc2c1Cl [D58845]
Activity [2]: 87%

CNC(=O)Nc1sc2c(Cl)c(O)c(Cl)cc2c1C(N)=O [D60166]
Activity [2]: 55%

CNC(=O)Nc1sc2c(C(C)C)cc(N)cc2c1C(N)=O [D63134]
Activity [2]: 26%

NC(=O)Nc1sc2cc(O)c(Br)cc2c1C(N)=O [D70865]
Activity [2]: 77%

CC(=O)Oc1cc2sc(NC(=O)C3CC3)c(C(N)=O)c2cc1Br [D70866]
Activity [2]: 80%

CC(=O)Oc1cc2sc(NC(N)=O)c(C(N)=O)c2cc1Br [D71014]
Activity [2]: 90%

NNC(=O)c1ccncc1 [Isoniazid, reference compound]
EsxA secretion ([7]; 0.5× MIC): no effect | GroEL in the culture filtrate (cell lysis) ([14]; 5× MIC): cell lysis

[Cu] [copper]
EsxA secretion ([7]; elevated concentrations of copper): no effect

CC[C@@H](CO)NCCN[C@@H](CC)CO [ethambutol, reference compound]
EsxA secretion ([7]; 0.5× MIC): no effect | GroEL in the culture filtrate (cell lysis) ([14]; 5× MIC): cell lysis

CCc1cc(C(N)=S)ccn1 [ethionamide, reference compound]
EsxA secretion [7]: no effect | GroEL in the culture filtrate (cell lysis) ([14]; 5× MIC): cell lysis

CC(=O)Nc1ccc(/C=N/NC(N)=S)cc1 [thiacetazone, reference compound]
EsxA secretion ([7]; 0.5× MIC): no effect | GroEL in the culture filtrate (cell lysis) ([14]; 5× MIC): cell lysis

O=S(=O)([O-])[O-].[Zn+2] [zinc, ZnSO4]
secretion of EsxA ([7]; 500 μM zinc): sixfold increase | Ag85 secretion ([13]; media containing elevated levels of ZnSO4): remained unchanged
